This is an account of results in patent publication US9492471B2, “Methods of treating a disease or disorder associated with Bruton'S Tyrosine Kinase” (Celgene Avilomics Research, Inc., priority 2013, dated 2016).

Read-outs that look alike come from different tables or passages of the source.

Assay in all cases: HotSpot kinase profiling
Holding throughout (format): biochemical

One assay concerns the target T1, MST3/STK24 (Homo sapiens, UniProt Q9Y6E0).
T1 construct: purchased Reaction Biology Corp
An outline of the steps:
(§1)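 Percent inhibition, averaged when run more than once and referenced to a DMSO negative control, came from a radioactive filter-binding readout on P81 paper. Reactions of kinase with freshly made substrate and cofactors ran for 2 h at room temperature.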

The next assay has as its target T2, c-Kit (Homo sapiens, UniProt P10721).
T2 construct: purchased Reaction Biology Corp
An outline of the steps: as §1

A further assay deals with T3, CAMK2g (Homo sapiens, UniProt Q13555).
T3 construct: purchased Reaction Biology Corp
A digest of the protocol:
as §1

The target of a further assay is T4, TYRO3/SKY (Homo sapiens, UniProt Q06418).
T4 construct: purchased Reaction Biology Corp
T4 sequence (Q06418 41-890): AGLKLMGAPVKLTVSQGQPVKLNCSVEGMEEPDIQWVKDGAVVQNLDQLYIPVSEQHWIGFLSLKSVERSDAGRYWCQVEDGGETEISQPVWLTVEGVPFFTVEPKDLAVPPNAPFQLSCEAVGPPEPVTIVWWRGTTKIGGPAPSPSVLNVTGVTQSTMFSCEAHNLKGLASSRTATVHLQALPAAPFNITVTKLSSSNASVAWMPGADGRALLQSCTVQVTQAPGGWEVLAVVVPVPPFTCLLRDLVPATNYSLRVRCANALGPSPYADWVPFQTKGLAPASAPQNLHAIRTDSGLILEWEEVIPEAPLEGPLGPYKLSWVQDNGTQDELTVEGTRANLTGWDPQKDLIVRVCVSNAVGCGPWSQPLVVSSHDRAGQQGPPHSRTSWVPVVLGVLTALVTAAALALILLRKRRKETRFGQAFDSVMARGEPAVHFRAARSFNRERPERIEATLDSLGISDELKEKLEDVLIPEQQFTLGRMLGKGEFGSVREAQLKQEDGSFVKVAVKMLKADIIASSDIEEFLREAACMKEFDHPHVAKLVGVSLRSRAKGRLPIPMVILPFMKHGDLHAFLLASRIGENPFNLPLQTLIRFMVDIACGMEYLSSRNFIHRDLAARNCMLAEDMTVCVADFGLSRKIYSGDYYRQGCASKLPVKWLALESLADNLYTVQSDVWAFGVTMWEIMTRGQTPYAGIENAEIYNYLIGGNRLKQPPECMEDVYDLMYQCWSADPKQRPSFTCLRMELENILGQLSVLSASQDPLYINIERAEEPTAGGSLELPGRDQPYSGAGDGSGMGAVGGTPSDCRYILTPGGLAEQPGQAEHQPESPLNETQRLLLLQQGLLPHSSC
A digest of the protocol:
as §1

The target of the next assay is T5, ITK (Homo sapiens, UniProt Q08881).
T5 construct: purchased Reaction Biology Corp
T5 sequence (Q08881 1-620): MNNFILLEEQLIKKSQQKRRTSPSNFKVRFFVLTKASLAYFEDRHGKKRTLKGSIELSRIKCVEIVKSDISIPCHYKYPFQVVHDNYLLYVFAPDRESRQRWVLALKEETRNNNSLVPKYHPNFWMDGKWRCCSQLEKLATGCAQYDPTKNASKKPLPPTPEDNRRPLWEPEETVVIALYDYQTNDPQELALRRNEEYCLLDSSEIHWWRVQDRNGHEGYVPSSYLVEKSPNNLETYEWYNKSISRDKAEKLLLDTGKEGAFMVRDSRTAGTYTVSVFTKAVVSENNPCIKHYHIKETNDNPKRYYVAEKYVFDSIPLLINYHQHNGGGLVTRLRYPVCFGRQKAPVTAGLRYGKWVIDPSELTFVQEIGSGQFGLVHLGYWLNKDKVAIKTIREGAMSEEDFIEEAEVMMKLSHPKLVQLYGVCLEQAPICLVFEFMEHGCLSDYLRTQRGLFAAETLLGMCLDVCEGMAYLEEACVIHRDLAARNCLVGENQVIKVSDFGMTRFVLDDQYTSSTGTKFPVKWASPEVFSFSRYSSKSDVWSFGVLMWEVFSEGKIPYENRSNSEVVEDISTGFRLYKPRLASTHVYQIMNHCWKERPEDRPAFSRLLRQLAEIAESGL
An outline of the steps:
as §1

A further assay deals with T6, PASK (Homo sapiens, UniProt Q96RG2).
T6 construct: purchased Reaction Biology Corp
A digest of the protocol:
as §1

For the next assay, the target named is T7, PAK5 (Homo sapiens, UniProt Q9P286).
T7 construct: purchased Reaction Biology Corp
A digest of the protocol:
as §1

Where [1] appears, read: read-out: % Enzyme Activity (relative to DMSO controls) Run 1.
Setting [2] is: read-out: % Enzyme Activity (relative to DMSO controls) Run 2.

T2 sequence (P10721 26-976): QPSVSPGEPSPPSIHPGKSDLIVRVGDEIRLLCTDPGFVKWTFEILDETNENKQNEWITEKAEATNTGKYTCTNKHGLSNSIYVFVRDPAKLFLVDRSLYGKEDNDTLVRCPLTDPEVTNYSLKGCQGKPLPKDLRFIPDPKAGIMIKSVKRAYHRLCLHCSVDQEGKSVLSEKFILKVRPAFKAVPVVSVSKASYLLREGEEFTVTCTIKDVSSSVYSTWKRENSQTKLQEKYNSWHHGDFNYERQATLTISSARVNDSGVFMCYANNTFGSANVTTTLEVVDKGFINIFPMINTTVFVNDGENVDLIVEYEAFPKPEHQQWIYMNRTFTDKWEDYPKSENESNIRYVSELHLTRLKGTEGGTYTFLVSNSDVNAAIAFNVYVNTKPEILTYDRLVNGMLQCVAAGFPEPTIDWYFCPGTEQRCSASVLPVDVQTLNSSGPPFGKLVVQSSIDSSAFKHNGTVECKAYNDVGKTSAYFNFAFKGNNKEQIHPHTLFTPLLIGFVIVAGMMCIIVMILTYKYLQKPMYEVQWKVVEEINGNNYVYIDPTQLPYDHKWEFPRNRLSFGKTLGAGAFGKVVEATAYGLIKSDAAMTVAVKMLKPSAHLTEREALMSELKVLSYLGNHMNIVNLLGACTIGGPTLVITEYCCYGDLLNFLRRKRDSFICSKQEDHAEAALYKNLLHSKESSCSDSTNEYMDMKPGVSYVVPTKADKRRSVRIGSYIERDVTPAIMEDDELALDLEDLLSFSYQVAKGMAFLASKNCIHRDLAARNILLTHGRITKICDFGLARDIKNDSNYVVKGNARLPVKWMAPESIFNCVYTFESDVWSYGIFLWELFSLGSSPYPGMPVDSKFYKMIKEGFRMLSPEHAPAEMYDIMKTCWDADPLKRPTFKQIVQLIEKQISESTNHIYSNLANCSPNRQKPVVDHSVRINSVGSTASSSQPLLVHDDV
T1 sequence (Q9Y6E0 whole entry): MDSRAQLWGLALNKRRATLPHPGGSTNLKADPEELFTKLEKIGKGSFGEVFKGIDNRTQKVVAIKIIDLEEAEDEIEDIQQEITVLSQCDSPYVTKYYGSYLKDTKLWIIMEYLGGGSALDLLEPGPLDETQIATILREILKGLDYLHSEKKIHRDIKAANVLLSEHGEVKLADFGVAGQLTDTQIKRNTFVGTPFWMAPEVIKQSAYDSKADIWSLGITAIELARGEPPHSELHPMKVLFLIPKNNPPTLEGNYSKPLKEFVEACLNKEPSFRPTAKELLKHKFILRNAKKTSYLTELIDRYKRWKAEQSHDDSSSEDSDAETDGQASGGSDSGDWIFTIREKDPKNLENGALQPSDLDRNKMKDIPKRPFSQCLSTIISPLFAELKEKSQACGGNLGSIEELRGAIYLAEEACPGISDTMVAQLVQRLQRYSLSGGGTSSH
T7 sequence (Q9P286 whole entry): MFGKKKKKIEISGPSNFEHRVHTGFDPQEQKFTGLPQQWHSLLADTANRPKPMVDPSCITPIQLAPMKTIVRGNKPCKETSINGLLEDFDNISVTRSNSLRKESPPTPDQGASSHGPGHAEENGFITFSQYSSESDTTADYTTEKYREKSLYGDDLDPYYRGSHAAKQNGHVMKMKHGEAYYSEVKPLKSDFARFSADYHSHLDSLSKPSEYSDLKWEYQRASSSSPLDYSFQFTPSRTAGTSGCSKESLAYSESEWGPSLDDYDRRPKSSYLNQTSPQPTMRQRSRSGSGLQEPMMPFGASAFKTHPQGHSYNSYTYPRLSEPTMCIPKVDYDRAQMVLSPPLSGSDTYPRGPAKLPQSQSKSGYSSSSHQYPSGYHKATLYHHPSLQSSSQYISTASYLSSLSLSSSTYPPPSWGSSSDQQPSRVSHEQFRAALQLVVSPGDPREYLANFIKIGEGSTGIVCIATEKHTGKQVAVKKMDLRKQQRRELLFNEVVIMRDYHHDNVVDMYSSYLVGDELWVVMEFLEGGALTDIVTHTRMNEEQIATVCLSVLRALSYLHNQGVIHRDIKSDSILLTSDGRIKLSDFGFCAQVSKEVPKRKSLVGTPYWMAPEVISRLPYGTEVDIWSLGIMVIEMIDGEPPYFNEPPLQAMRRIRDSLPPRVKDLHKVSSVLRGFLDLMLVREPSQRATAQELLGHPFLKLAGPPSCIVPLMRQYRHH
T6 sequence (Q96RG2 whole entry): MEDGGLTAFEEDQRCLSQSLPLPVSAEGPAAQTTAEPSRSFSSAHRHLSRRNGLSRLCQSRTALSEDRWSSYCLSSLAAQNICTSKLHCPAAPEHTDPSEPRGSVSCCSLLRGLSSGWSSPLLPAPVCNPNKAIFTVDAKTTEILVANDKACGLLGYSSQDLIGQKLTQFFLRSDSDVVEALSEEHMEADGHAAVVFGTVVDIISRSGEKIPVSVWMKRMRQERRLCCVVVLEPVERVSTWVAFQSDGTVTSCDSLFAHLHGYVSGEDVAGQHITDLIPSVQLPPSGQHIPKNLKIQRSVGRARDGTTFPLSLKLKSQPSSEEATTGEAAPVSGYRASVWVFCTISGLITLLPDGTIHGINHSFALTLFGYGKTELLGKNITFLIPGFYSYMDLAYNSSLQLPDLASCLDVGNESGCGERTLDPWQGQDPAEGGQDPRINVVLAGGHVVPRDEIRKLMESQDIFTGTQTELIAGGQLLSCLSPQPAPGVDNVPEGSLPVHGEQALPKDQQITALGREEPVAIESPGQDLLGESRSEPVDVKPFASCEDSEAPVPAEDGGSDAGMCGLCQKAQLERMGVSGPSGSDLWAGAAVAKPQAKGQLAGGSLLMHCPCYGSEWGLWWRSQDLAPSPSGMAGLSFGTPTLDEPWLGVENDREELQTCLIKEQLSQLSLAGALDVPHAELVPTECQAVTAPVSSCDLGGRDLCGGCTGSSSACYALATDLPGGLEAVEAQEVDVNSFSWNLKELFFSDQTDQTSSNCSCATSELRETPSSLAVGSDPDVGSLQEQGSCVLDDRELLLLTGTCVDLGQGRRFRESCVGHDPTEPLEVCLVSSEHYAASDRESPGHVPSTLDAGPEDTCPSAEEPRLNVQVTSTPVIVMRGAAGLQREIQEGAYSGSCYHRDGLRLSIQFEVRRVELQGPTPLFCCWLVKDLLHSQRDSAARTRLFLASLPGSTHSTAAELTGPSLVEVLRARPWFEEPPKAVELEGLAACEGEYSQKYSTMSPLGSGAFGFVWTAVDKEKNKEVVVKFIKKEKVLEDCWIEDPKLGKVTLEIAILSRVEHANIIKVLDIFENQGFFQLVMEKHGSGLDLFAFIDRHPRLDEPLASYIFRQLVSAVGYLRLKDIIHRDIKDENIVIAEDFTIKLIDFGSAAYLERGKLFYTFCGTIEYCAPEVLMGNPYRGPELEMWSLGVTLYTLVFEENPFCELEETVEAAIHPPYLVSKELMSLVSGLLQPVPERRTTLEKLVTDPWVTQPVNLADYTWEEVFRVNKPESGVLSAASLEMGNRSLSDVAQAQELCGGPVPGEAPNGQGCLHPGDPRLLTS
T3 sequence (Q13555 whole entry): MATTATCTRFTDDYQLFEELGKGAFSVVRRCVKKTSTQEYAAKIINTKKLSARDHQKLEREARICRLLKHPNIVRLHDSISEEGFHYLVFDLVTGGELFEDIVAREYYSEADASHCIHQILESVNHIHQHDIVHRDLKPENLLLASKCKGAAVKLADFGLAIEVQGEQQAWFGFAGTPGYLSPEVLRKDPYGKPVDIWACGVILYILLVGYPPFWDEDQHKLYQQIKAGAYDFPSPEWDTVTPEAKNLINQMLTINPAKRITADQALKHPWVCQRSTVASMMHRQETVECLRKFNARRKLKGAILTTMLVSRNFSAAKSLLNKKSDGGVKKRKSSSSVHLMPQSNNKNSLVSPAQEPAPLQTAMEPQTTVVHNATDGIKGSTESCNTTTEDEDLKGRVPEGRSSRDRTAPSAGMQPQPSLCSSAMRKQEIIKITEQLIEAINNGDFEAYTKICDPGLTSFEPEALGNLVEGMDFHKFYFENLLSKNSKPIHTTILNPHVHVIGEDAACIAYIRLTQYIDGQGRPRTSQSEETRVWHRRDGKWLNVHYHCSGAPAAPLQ

Consider `C=CC(=O)Nc1cccc(Nc2nc(Nc3ccc(OCCOC)c(F)c3)ncc2F)c1` [Compound 2], for which the inhibition at 3 µM was 14.5% on MST3/STK24; 21.5% at c-Kit; -7.18% on CAMK2g; 4.03% against TYRO3/SKY; 92% against ITK; 6.14% against PASK. The inhibition at 3 µM at PAK5 is -27.4%. Also, the remaining activity at 3 µM on MST3/STK24 (setting [1]) turned out to be 86.6%; on MST3/STK24 (setting [2]) it was 84.5%; on c-Kit (setting [1]) it was 77.5%; on c-Kit (setting [2]) it was 79.5%; at CAMK2g (setting [1]), 104%; on CAMK2g (setting [2]), 111%. Further, the remaining activity at 3 µM on TYRO3/SKY (setting [1]) came to 95.1%; on TYRO3/SKY (setting [2]) it was 96.8%; on ITK (setting [1]), 7.97%; on ITK (setting [2]), 7.95%; on PASK (setting [1]), 94.7%; on PASK (setting [2]), 93.1%. The remaining activity at 3 µM came out at 123% on PAK5 (setting [1]) and 132% on PAK5 (setting [2]).

What is called inhibition is the relative decrease from the control value, in per cent.
